Laboratory results taken from the supplement of paper PMC10307832.

Compound: Cc1cnc(Nc2ccc(OCCN3CCCC3)cc2)nc1Nc1cccc(S(=O)(=O)NC(C)(C)C)c1 [Fedratinib] + CC(C)C[C@H](NC(=O)[C@H](Cc1ccccc1)NC(=O)c1cnccn1)B(O)O [Bortezomib] (partner 0.002 µM)
Test: relative viability (nuclei count vs DMSO), 5 days (fraction); higher = more cells survive
Conditions: first compound 1 µM
Procedure, shortened: (§1)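 Lung cancer cell lines, seeded in 1536-well plates, were treated the following day by pin tool with a single drug or with five library-drug doses (not always all listed) in √10 steps on top of a fixed anchor-drug dose. Cells were fixed and nuclei stained in one step after 5 days, and nuclei were counted. Relative viability is the nuclei count for treated wells divided by that for vehicle wells, reported as medians of duplicate plates.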

In order of rising relative viability:
1. NCI-H2009  0.131
2. NCI-H23  0.173
3. LCLC-97TM1  0.228
4. NCI-H1734  0.231
5. NCI-H441  0.236
6. COR-L 105  0.289
7. NCI-H647  0.395
8. HARA  0.404
9. NCI-H2228  0.408
10. EPLC-272H  0.451
11. LU99A  0.466
12. LOU-NH91  0.468
13. HCC-78  0.511
14. A-427  0.558
15. BEN  0.559
16. NCI-H1915  0.662
17. NCI-H2347  0.722
18. ChaGo-K-1  0.777
19. LXF-289  0.78
20. HOP-62  0.785
21. CAL-12T  0.805
22. NCI-H1651  0.871
23. NCI-H661  0.9
24. NCI-H2405  0.957
25. SK-LU-1  0.967
26. HCC-827  1.03
27. NCI-H460  1.04
28. NCI-H322M  1.06
29. 201T  1.08
30. NCI-H1355  1.09

Compound: Cc1cnc(Nc2ccc(OCCN3CCCC3)cc2)nc1Nc1cccc(S(=O)(=O)NC(C)(C)C)c1 [Fedratinib] + Cc1cc(Nc2cc(N3CCN(C)CC3)nc(Sc3ccc(NC(=O)C4CC4)cc3)n2)n[nH]1 [Tozasertib] (partner 0.1 µM)
Test: as above
Conditions: first compound 0.1 µM
Procedure, shortened: as §1

In order of rising relative viability:
1. NCI-H460  0.078
2. HARA  0.107
3. LXF-289  0.149
4. LCLC-97TM1  0.175
5. EPLC-272H  0.178
6. A-427  0.183
7. NCI-H2228  0.188
8. LU99A  0.209
9. ChaGo-K-1  0.213
10. NCI-H647  0.249
11. NCI-H1734  0.262
12. SK-LU-1  0.27
13. CAL-12T  0.285
14. HOP-62  0.289
15. NCI-H1355  0.325
16. NCI-H661  0.327
17. NCI-H1915  0.329
18. HCC-827  0.345
19. COR-L 105  0.362
20. NCI-H2347  0.368
21. LOU-NH91  0.388
22. HCC-78  0.402
23. NCI-H441  0.412
24. NCI-H2405  0.418
25. BEN  0.507
26. NCI-H322M  0.52
27. NCI-H23  0.528
28. NCI-H1651  0.537
29. NCI-H2009  0.547
30. 201T  0.609

Same assay, conditions: first compound 0.3162 µM

In order of falling relative viability:
1. 201T  0.904
2. NCI-H2009  0.792
3. LOU-NH91  0.73
4. NCI-H2405  0.705
5. NCI-H1651  0.616
6. NCI-H2347  0.602
7. NCI-H1355  0.593
8. NCI-H441  0.538
9. BEN  0.464
10. NCI-H322M  0.447
11. NCI-H1915  0.417
12. HCC-827  0.387
13. NCI-H460  0.379
14. NCI-H23  0.364
15. HOP-62  0.362
16. COR-L 105  0.361
17. HCC-78  0.36
18. NCI-H647  0.336
19. NCI-H661  0.326
20. EPLC-272H  0.318
21. CAL-12T  0.304
22. SK-LU-1  0.298
23. LU99A  0.291
24. NCI-H1734  0.278
25. ChaGo-K-1  0.245
26. NCI-H2228  0.221
27. LCLC-97TM1  0.213
28. A-427  0.194
29. LXF-289  0.185
30. HARA  0.105

Same assay, conditions: first compound 1 µM

In order of falling relative viability:
1. 201T  0.874
2. NCI-H2009  0.652
3. LOU-NH91  0.64
4. NCI-H1651  0.623
5. NCI-H2405  0.612
6. NCI-H441  0.575
7. NCI-H2347  0.483
8. BEN  0.45
9. NCI-H1355  0.421
10. HCC-827  0.409
11. HCC-78  0.392
12. NCI-H661  0.371
13. HOP-62  0.358
14. COR-L 105  0.338
15. NCI-H460  0.334
16. NCI-H322M  0.333
17. NCI-H1915  0.328
18. CAL-12T  0.322
19. NCI-H23  0.303
20. LU99A  0.276
21. SK-LU-1  0.261
22. EPLC-272H  0.251
23. NCI-H1734  0.243
24. NCI-H2228  0.227
25. ChaGo-K-1  0.217
26. NCI-H647  0.214
27. LCLC-97TM1  0.19
28. A-427  0.16
29. LXF-289  0.151
30. HARA  0.0905

Compound: Cc1cnc(Nc2ccc(OCCN3CCCC3)cc2)nc1Nc1cccc(S(=O)(=O)NC(C)(C)C)c1 [Fedratinib] + Cc1nc(Nc2ncc(C(=O)Nc3c(C)cccc3Cl)s2)cc(N2CCN(CCO)CC2)n1 [Dasatinib] (partner 0.075 µM)
Test: as above
Conditions: first compound 0.1 µM
Procedure, shortened: as §1

In order of rising relative viability:
1. SK-LU-1  0.143
2. NCI-H2405  0.191
3. NCI-H647  0.21
4. HARA  0.217
5. NCI-H2009  0.232
6. HCC-827  0.249
7. LXF-289  0.249
8. NCI-H322M  0.254
9. NCI-H1915  0.258
10. COR-L 105  0.29
11. NCI-H2347  0.311
12. BEN  0.36
13. EPLC-272H  0.364
14. HCC-78  0.384
15. NCI-H1651  0.437
16. NCI-H1734  0.455
17. CAL-12T  0.47
18. LU99A  0.494
19. NCI-H460  0.496
20. ChaGo-K-1  0.515
21. 201T  0.515
22. LOU-NH91  0.518
23. NCI-H2228  0.552
24. NCI-H441  0.618
25. NCI-H1355  0.67
26. HOP-62  0.739
27. A-427  0.74
28. NCI-H23  0.805
29. LCLC-97TM1  0.822
30. NCI-H661  0.83

Same assay, conditions: first compound 0.3162 µM

In order of rising relative viability:
1. HARA  0.155
2. LXF-289  0.158
3. SK-LU-1  0.169
4. NCI-H647  0.203
5. NCI-H322M  0.24
6. NCI-H2009  0.241
7. NCI-H2405  0.244
8. NCI-H2347  0.275
9. CAL-12T  0.277
10. NCI-H1915  0.307
11. HCC-78  0.309
12. BEN  0.312
13. NCI-H441  0.314
14. COR-L 105  0.319
15. HCC-827  0.344
16. EPLC-272H  0.345
17. NCI-H460  0.415
18. NCI-H23  0.415
19. NCI-H1651  0.418
20. ChaGo-K-1  0.437
21. NCI-H2228  0.448
22. NCI-H1734  0.464
23. LU99A  0.508
24. LOU-NH91  0.518
25. 201T  0.571
26. HOP-62  0.6
27. A-427  0.733
28. NCI-H1355  0.75
29. LCLC-97TM1  0.831
30. NCI-H661  0.912

Same assay, conditions: first compound 1 µM

In order of falling relative viability:
1. NCI-H23  0.911
2. LCLC-97TM1  0.723
3. NCI-H661  0.612
4. LOU-NH91  0.557
5. 201T  0.545
6. HOP-62  0.503
7. ChaGo-K-1  0.496
8. NCI-H441  0.493
9. NCI-H2347  0.435
10. LU99A  0.42
11. NCI-H1734  0.4
12. NCI-H1355  0.374
13. NCI-H2228  0.349
14. NCI-H460  0.329
15. NCI-H1651  0.329
16. HCC-78  0.306
17. HCC-827  0.298
18. BEN  0.294
19. COR-L 105  0.287
20. CAL-12T  0.285
21. A-427  0.249
22. HARA  0.24
23. NCI-H322M  0.222
24. LXF-289  0.203
25. NCI-H2009  0.185
26. NCI-H1915  0.179
27. SK-LU-1  0.165
28. NCI-H2405  0.159
29. NCI-H647  0.142
30. EPLC-272H  0.0536

Compound: Cc1cnc(Nc2ccc(OCCN3CCCC3)cc2)nc1Nc1cccc(S(=O)(=O)NC(C)(C)C)c1 [Fedratinib] + O=C(CCCCCCC(=O)Nc1ccccc1)NO [Vorinostat] (partner 1 µM)
Test: as above
Conditions: first compound 0.1 µM
Procedure, shortened: as §1

In order of falling relative viability:
1. NCI-H460  1.14
2. NCI-H1734  1.07
3. NCI-H2405  0.946
4. 201T  0.935
5. NCI-H441  0.921
6. A-427  0.873
7. NCI-H322M  0.87
8. HCC-827  0.862
9. COR-L 105  0.825
10. NCI-H661  0.785
11. LOU-NH91  0.777
12. SK-LU-1  0.766
13. LXF-289  0.765
14. CAL-12T  0.747
15. NCI-H2228  0.744
16. ChaGo-K-1  0.74
17. LCLC-97TM1  0.74
18. NCI-H1355  0.688
19. HOP-62  0.64
20. NCI-H2009  0.639
21. NCI-H647  0.61
22. NCI-H23  0.56
23. EPLC-272H  0.547
24. BEN  0.544
25. NCI-H1915  0.539
26. NCI-H2347  0.533
27. HARA  0.512
28. NCI-H1651  0.498
29. LU99A  0.454
30. HCC-78  0.382

Same assay, conditions: first compound 0.3162 µM

In order of falling relative viability:
1. LOU-NH91  1.09
2. NCI-H2405  0.982
3. 201T  0.975
4. NCI-H322M  0.969
5. COR-L 105  0.904
6. HCC-827  0.841
7. CAL-12T  0.84
8. NCI-H661  0.833
9. NCI-H1734  0.796
10. A-427  0.792
11. SK-LU-1  0.786
12. NCI-H647  0.782
13. NCI-H460  0.768
14. ChaGo-K-1  0.757
15. NCI-H441  0.749
16. LXF-289  0.748
17. NCI-H2009  0.696
18. LCLC-97TM1  0.669
19. HARA  0.629
20. NCI-H1355  0.622
21. HOP-62  0.605
22. NCI-H2228  0.589
23. BEN  0.577
24. NCI-H1651  0.567
25. HCC-78  0.514
26. LU99A  0.513
27. NCI-H1915  0.507
28. NCI-H2347  0.494
29. EPLC-272H  0.375
30. NCI-H23  0.36

Same assay, conditions: first compound 1 µM

In order of rising relative viability:
1. EPLC-272H  0.335
2. NCI-H647  0.385
3. LU99A  0.41
4. NCI-H23  0.453
5. LCLC-97TM1  0.456
6. NCI-H1915  0.459
7. HCC-78  0.469
8. HARA  0.51
9. NCI-H2228  0.545
10. BEN  0.55
11. NCI-H1651  0.552
12. NCI-H2347  0.587
13. HOP-62  0.594
14. NCI-H1355  0.596
15. SK-LU-1  0.614
16. NCI-H441  0.615
17. COR-L 105  0.676
18. CAL-12T  0.681
19. NCI-H1734  0.685
20. NCI-H2009  0.695
21. NCI-H661  0.716
22. ChaGo-K-1  0.718
23. NCI-H322M  0.735
24. NCI-H460  0.736
25. HCC-827  0.75
26. LXF-289  0.775
27. A-427  0.781
28. LOU-NH91  0.782
29. NCI-H2405  0.814
30. 201T  0.955
